# Source: patent US7442702B2, “Prostaglandin agonists” (priority 1997, dated 2008)
# Tests used:
# [1] = system: expression of Bone Morphogenetic Protein 7 (BMP-7) in 293S cells transfected with EP2; assay: Kidney regeneration assay: BMP-7 expression (Northern blot) in 293S cells transfected with EP2; assay type: cell-based, human; conditions: EP2 293S cells, 10^−6M, RNA extracted at 8, 16 and 24 hours
# Description: (§1) Methods: 293S and EP293S cells are grown in Dulbecco's Modified Egale medium (DMEM, Gibco, BRL; Gaithersburg, Md.). […] Cells are harvested and RNA is extracted at 8, 16 and 24 hours. Northern blot analysis of total RNA ([…]) is carried out by probing the blots with ^32P-labeled BMP-7 probe. The blots are normalized for RNA loading by hybridization with ^32P-labeled 18s ribosomal RNA probe. […] Given the known role of BMP-7 in kidney regeneration and the ability of an prostaglandin agonist to induce BMP-7 expression in 293S kidney cells in a time and receptor specific manner indicates a role for prostaglandin agonist in kidney regeneration.
# [2] = system: expression of Bone Morphogenetic Protein 7 (BMP-7) in wild type 293S cells; assay: Kidney regeneration assay: BMP-7 expression (Northern blot) in wild type 293S cells; assay type: cell-based, human; conditions: parental 293S cell line, 10^−6M, RNA extracted at 8, 16 and 24 hours
# Description: as §1
smiles,measurement,setting,value
"CCCCC[C@H](O)/C=C/[C@H]1[C@H](O)CC(=O)[C@@H]1C/C=C\CCCC(=O)O [PGE2, Prostaglandin E2]",induction of expression of BMP-7,[1],induce the expression of BMP-7 in the EP2 293S cells in a time dependent manner
same,induction of expression of BMP-7,[2],generally not observed
